Data: patent US20190241569A1, “3-(ARYL OR HETEROARYL) METHYLENEINDOLIN-2-ONE DERIVATIVES AS INHIBITORS OF CANCER STEM CELL PATHWAY KINASES FOR THE TREATMENT OF CANCER” (Boston Biomedical, Inc., priority 2013, published 2019)
Like-named read-outs stand apart in the source and are kept apart here.

Key:
Type in all cases: cell-based
[1] = system: A549; test: Bulk cancer cells, Cell Titer-Glo 72 hours (Test Example 2); conditions: Homo sapiens
Procedure: (§1) Tubes of 3× drug (60 uM in 500 uL complete media) were prepared from 5 mM stock solutions in DMSO. […] To treat cells, 50 uL of drug from the dilution plate was removed and added to the cell plates. […] Cells were harvested 72 hours after drug addition using Cell Titer-Glo (Promega) and luminescence measured on a plate reader.

[2] = system: FaDu; test: as above; conditions: Homo sapiens
Procedure: as §1

[3] = system: ACHN; test: as above
Procedure: as §1

[4] = system: ACHN CSC; test: Cancer stem cells, Cell Titer-Glo 72 hours (Test Example 3)
[5] = system: FaDu CSC; test: as above
[6] = system: A549 CSC; test: as above; conditions: Homo sapiens

Structure (SMILES) | IC50 [1] [µM] | IC50 [2] [µM] | IC50 ([3]; Homo sapiens, ACHN, 72 h) [µM] | IC50 ([4]; Homo sapiens, ACHN, 72 h) [µM] | IC50 ([5]; Homo sapiens, FaDu, 72 h) [µM] | IC50 [3] [µM] | IC50 [4] [µM] | IC50 [6] [µM] | IC50 [5] [µM]
CCN(CC)CCNC(=O)c1c(C)[nH]c(/C=C2\C(=O)Nc3cc(-c4nccc5ccccc45)ccc32)c1C [Example 255] | 7.14 | 9.12 | 6.51 | 1.91 | 24.4 | – | – | – | –
Cc1ccc(-c2ccc3c(c2)/C(=C/c2[nH]c(C)cc2C)C(=O)N3)nc1 [Example 216] | – | 37.3 | – | 0.05 | – | – | – | – | –
CCN(CC)CCNC(=O)c1ccc(/C=C2\C(=O)Nc3ccc(-c4csc(-c5ccccc5)n4)cc32)[nH]c1=O [Example 121] | 3.64 | 3.1 | 3.31 | – | 6.15 | – | – | – | –
O=C1Nc2ccc(-c3csc(-c4ccccc4)n3)cc2/C1=C/c1[nH]cc2ccccc12 [Example 162] | – | – | – | 4.08 | 5.04 | – | – | – | –
Cc1ccc(-c2ccc3c(c2)/C(=C/c2[nH]c(C)cc2C)C(=O)N3)cn1 [Example 228] | – | – | – | – | – | 22.4 | 3.42 | 25.4 | –
O=C1Nc2ccc(-c3csc(-c4ccccc4)n3)cc2/C1=C/c1cnc[nH]1 [Example 151] | 11.2 | 6.14 | 8.74 | – | 6.32 | – | – | 0.9 | –
CCN(CC)CCNC(=O)c1c(C)[nH]c(/C=C2\C(=O)Nc3ccc(-c4cnc(-c5ccccc5)cn4)cc32)c1C [Example 199] | 16.9 | 17.5 | 25.8 | – | 39.1 | – | – | 43.6 | –
Cc1cc(C)c(/C=C2\C(=O)Nc3ccc(-c4cnsc4)cc32)[nH]1 [Example 220] | – | 26.7 | 42.8 | 17.1 | 43.4 | – | – | – | –
Cc1[nH]c(/C=C2\C(=O)Nc3ccc(-c4cnn(-c5ccccc5)c4)cc32)c(C)c1C(=O)N1CCN(C)CC1 [Example 6] | 6.91 | 3.62 | 3.4 | – | 0.31 | – | – | 4.49 | –
CCN(CC)CCNC(=O)c1c(C)[nH]c(/C=C2\C(=O)Nc3cc(-c4csc(-c5ccccc5)n4)ccc32)c1C [Example 7] | – | 1.8 | – | 0.19 | 0.6 | – | – | 3.73 | –
CCN(CC)CCNC(=O)c1c(C)[nH]c(/C=C2\C(=O)Nc3ccc(-c4cnc(SC)cn4)cc32)c1C [Example 201] | 6.06 | 5.96 | 12.3 | – | – | – | – | 30 | –
Cc1cc(C)c(/C=C2\C(=O)Nc3ccc(-c4ccccn4)cc32)[nH]1 [Example 226] | – | – | – | 0.02 | – | – | – | – | –
Cc1cc(C)c(/C=C2\C(=O)Nc3ccc(-c4csc(-n5cccn5)n4)cc32)[nH]1 [Example 232] | 9.76 | 20.8 | 9 | – | 27.2 | – | – | 16.2 | –
Cc1cc(C)c(/C=C2\C(=O)Nc3ccc(-c4ncccn4)cc32)[nH]1 [Example 236] | – | 26.1 | 25.3 | – | 25.2 | – | – | 28.7 | –
Cc1[nH]c(/C=C2\C(=O)Nc3ccc(-c4cnn(-c5ccccn5)c4)cc32)c(C)c1C(=O)N1CCN(C)CC1 [Example 31] | 18.9 | 3.67 | – | – | 0.24 | – | – | 11.7 | –
CCN(CC)CCNC(=O)c1c(C)[nH]c(/C=C2\C(=O)Nc3ccc(-c4n[nH]c5c(N)cccc45)cc32)c1C [Example 268] | 11.6 | 7.09 | 12 | 30.9 | 28.4 | – | – | – | –
Cc1cc(C)c(/C=C2\C(=O)Nc3cc(-c4cnc5ccccc5n4)ccc32)[nH]1 [Example 242] | 18.2 | – | – | 2.54 | 8.8 | – | – | 5.83 | –
CCN(CC)CCNC(=O)c1c(C)[nH]c(/C=C2\C(=O)Nc3ccc(-c4csc(C5CCNC5)n4)cc32)c1C (stereo not shown) [Example 133] | 0.72 | 2.42 | 6.75 | – | – | – | – | 32.5 | –
CCOC(=O)c1cc(C)c(/C=C2\C(=O)Nc3ccc(-c4csc(-c5ccccc5)n4)cc32)[nH]1 [Example 161] | 40 | 13.5 | 0.39 | – | – | – | – | 13.2 | –
Cc1cc(C)c(/C=C2\C(=O)Nc3ccc(-c4cnc5cccnn45)cc32)[nH]1 [Example 234] | 12.5 | 5.23 | – | – | 1.55 | – | – | 8.66 | –
Cc1ccc(-c2nc(-c3ccc4c(c3)/C(=C/c3[nH]c(C)c(C(=O)N5CCN(C)CC5)c3C)C(=O)N4)cs2)cc1 [Example 104] | 8.55 | 7.87 | 4.25 | – | 1.98 | – | – | 0.45 | –
Cc1cc(C)c(/C=C2\C(=O)Nc3ccc(-c4cnc(-c5ccccc5)cn4)cc32)[nH]1 [Example 233] | – | – | – | 6.8 | – | – | – | – | –
Cc1[nH]c(/C=C2\C(=O)Nc3ccc(-c4csc(-c5ccccc5)n4)cc32)c(C)c1S(=O)(=O)N1CCCC1 [Example 146] | 2.86 | 5.48 | 12.6 | 5.05 | 6.56 | – | – | – | –
Cc1cc(C)c(/C=C2\C(=O)Nc3cc(-c4ccncc4)ccc32)[nH]1 [Example 250] | – | 18.4 | – | – | – | – | – | 0.98 | –

Structure (SMILES) | IC50 [1] [µM] | IC50 [2] [µM] | IC50 ([3]; Homo sapiens, ACHN, 72 h) [µM] | IC50 ([4]; Homo sapiens, ACHN, 72 h) [µM] | IC50 ([5]; Homo sapiens, FaDu, 72 h) [µM] | IC50 [3] [µM] | IC50 [4] [µM] | IC50 [6] [µM] | IC50 [5] [µM]
Cc1ccc(-c2ccc3c(c2)/C(=C/c2[nH]c(C)cc2C)C(=O)N3)cn1 [Example 213] | 25.8 | – | 24.9 | – | – | – | 0.01 | – | –
CCN(CC)CCNC(=O)c1c(C)[nH]c(/C=C2\C(=O)Nc3cc(-c4ccc(-c5ccccc5)nc4)ccc32)c1C [Example 249] | 14.8 | – | – | 0.21 | 1.12 | – | – | 3.59 | –
CCN(CC)CCNC(=O)c1c(C)[nH]c(/C=C2\C(=O)Nc3ccc(-c4csc(-c5ccc(C)cc5)n4)cc32)c1C [Example 102] | – | – | – | 0.69 | 3.4 | – | – | 10.5 | –
CCOC(=O)c1[nH]c(/C=C2\C(=O)Nc3ccc(-c4csc(-c5ccccc5)n4)cc32)c2c1CCCC2 [Example 164] | – | – | 0.83 | 1.6 | 2.91 | – | – | – | –
Cc1cc(C)c(/C=C2\C(=O)Nc3ccc(-c4nc5ccccc5s4)cc32)[nH]1 [Example 235] | 16.1 | 26.8 | 14.7 | – | – | – | – | – | –
Cc1[nH]c(/C=C2\C(=O)Nc3ccc(-c4csc(-c5ccccc5)n4)cc32)c(C)c1CCC(=O)O [Example 148] | – | – | – | – | – | – | – | 1.65 | –
Cc1cc(C)c(/C=C2\C(=O)Nc3ccc(-c4cnc5ccccc5n4)cc32)[nH]1 [Example 217] | 7.89 | 25.8 | 10.6 | – | 0.09 | – | – | – | –
Cc1cc(C)c(/C=C2\C(=O)Nc3ccc(-c4ncccc4C)cc32)[nH]1 [Example 225] | – | – | – | – | – | – | 0.01 | – | 47.4
CCN(CC)CCNC(=O)c1c(C)[nH]c(/C=C2\C(=O)Nc3ccc(-c4nnc(-c5ccccc5)s4)cc32)c1C [Example 52] | 48.9 | 2.15 | – | – | 0.23 | – | – | – | –
Cc1cc(C)c(/C=C2\C(=O)Nc3ccc(-c4cnc5ccccn45)cc32)[nH]1 [Example 224] | 16.6 | 11.4 | 25.2 | – | 17 | – | – | 20.2 | –
COC(=O)c1c(C)[nH]c(/C=C2\C(=O)Nc3ccc(-c4csc(-c5ccccc5)n4)cc32)c1C [Example 141] | 16.3 | 21.8 | 1.16 | – | – | – | – | – | –
CCN(CC)CCN1CCCc2[nH]c(/C=C3\C(=O)Nc4ccc(-c5csc(C6CCNCC6)n5)cc43)c(C)c2C1=O [Example 178] | 7.06 | 8.67 | – | 11.9 | – | – | – | – | –
Cc1cc(C)c(/C=C2\C(=O)Nc3ccc(-c4cccc5ncccc45)cc32)[nH]1 [Example 259] | 11.1 | 13.4 | 13.2 | – | 13.1 | – | – | 40 | –
O=C1Nc2ccc(-c3csc(-c4ccncc4)n3)cc2/C1=C/c1cc2c([nH]1)CCCC2 [Example 156] | – | – | 37.8 | – | – | – | – | 0.8 | –
O=C1Nc2ccc(-c3csc(-c4ccccc4)n3)cc2/C1=C/c1cc2c([nH]1)CCCC2 [Example 155] | – | 20.2 | 34.6 | 2.52 | 4.09 | – | – | 1.42 | –
Cc1cc(C)c(/C=C2\C(=O)Nc3ccc(-c4ccncc4)cc32)[nH]1 [Example 238] | – | – | – | 6.95 | – | – | – | – | –
Cc1cc(C)c(/C=C2\C(=O)Nc3ccc(-c4ncccc4C)cc32)[nH]1 [Example 211] | 22.4 | – | 7.95 | 0.01 | 41.1 | – | – | – | –
CSc1cnc(-c2ccc3c(c2)/C(=C/c2[nH]c(C)cc2C)C(=O)N3)cn1 [Example 221] | 35.8 | – | 0.16 | 18.3 | – | – | – | – | –
Cc1cc(C)c(/C=C2\C(=O)Nc3ccc(-c4cc(-c5ccccc5)ccn4)cc32)[nH]1 [Example 223] | 13.8 | 22.4 | – | – | – | – | – | 35.7 | –
Cc1ccc(-c2ccc3c(c2)NC(=O)/C3=C\c2[nH]c(C)cc2C)cn1 [Example 244] | – | – | 22 | 4.55 | 3.61 | – | – | 23.7 | –
CCN(CC)CCNC(=O)c1c(C)[nH]c(/C=C2\C(=O)Nc3ccc(C4CCN(C5CCN(C(C)=O)CC5)CC4)cc32)c1C [Example 45] | 29.6 | 3.32 | 4.8 | – | 1 | – | – | – | –
Cc1cc(C)c(/C=C2\C(=O)Nc3ccc(-c4cncnc4)cc32)[nH]1 [Example 212] | 20.8 | – | 12.8 | – | – | – | – | – | –
CCN(CC)CCNC(=O)c1c(C)[nH]c(/C=C2\C(=O)Nc3ccc(-c4cn(-c5ccccc5)nn4)cc32)c1C [Example 48] | 4.88 | 6.74 | 4.73 | – | 2.9 | – | – | – | –
CCN(CC)CCNC(=O)c1c(C)[nH]c(/C=C2\C(=O)Nc3cc(-c4ccc(-c5ccccc5)cn4)ccc32)c1C [Example 256] | – | 19.8 | – | 2.88 | 1.18 | – | – | 4.93 | –
